These results are taken from ChEMBL document CHEMBL4270501, “Indole-fused azepines and analogues as anticancer lead molecules: Privileged findings and future directions” (Eur J Med Chem, 2017).

SMILES strings stand for the structures.

The assay deals with MCF7. The assay is described as follows: Growth inhibition of human MCF7 cells by MTT assay. Type of assay: functional, cell-based. (In general: Formazan colour is commonly taken as a measure of viable cells.)

The IC50 is the midpoint of a concentration-inhibition curve. A lower IC50 goes with greater potency. Consider `O=C1Cc2c([nH]c3ccccc23)-c2ccccc2N1` [PAULLONE], for which the midpoint of inhibition, the IC50, lay at 1200 nM. That is a single-digit micromolar value.

Regarding `COc1ccc2c3c([nH]c2c1)-c1ccccc1NC(=O)C3`, the IC50 is 600 nM.
